For assay [1], the target named is T1, human CB2R (Homo sapiens, UniProt P34972).
T1 construct: host or cells: HEK-293T, transient transfection, living cells
Briefly: HTRF (Tag-lite) competition binding of red CB2R ligand in living HEK-293T cells expressing SNAP-CB2R. The settings on record: 100 nM red CB2R ligand, low nanomolar CBD concentrations.

In assay [2] the target is T1, human CB2R. Kind of assay: Forskolin-induced intracellular cAMP determination in HEK-293T cells expressing CB2R. The assay is classed as cell-based.
A further assay addresses T2, human GPR55 (Homo sapiens, UniProt Q9Y2T6).
T2 construct: expressed in transfected cells; host or cells: HEK-293T, transient transfection
Briefly: Forskolin-induced intracellular cAMP determination in HEK-293T cells expressing GPR55. The assay is classed as cell-based. As to the method:
Two hours before initiating the experiment, growth medium was replaced by serum-free DMEM. Then, HEK-293T cells transiently expressing CB2R or GPR55 were detached and resuspended in growing medium containing 50 μM zardaverine and plated in 384-well microplates (2,500 cells/well), pretreated (15 min) with the corresponding antagonists—or vehicle—and stimulated with agonists (15 min) before adding 0.5 μM forskolin or vehicle. Readings were performed after 15 min of incubation at 25°C. HTRF measures were performed using the Lance Ultra cAMP kit (PerkinElmer, Waltham, MA, United States). Fluorescence at 665 nm was analyzed on a PHERAstar Flagship microplate reader equipped with an HTRF optical module (BMG Lab Technologies, Offenburg, Germany).

In assay [3] the target is T1, human CB2R. Briefly: HTRF (Tag-lite) saturation binding of red CB2R ligand in living HEK-293T cells expressing SNAP-CB2R.

T1 sequence (P34972 whole entry): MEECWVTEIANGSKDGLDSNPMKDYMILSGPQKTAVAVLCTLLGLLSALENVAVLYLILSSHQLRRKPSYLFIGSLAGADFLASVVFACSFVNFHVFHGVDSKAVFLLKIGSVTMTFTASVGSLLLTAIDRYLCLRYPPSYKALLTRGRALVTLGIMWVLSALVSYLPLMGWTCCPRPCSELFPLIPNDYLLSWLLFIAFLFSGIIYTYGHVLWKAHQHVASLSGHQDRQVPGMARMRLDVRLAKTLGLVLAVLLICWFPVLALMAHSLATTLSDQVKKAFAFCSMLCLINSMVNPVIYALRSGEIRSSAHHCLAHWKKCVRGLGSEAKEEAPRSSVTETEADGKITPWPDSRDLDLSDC
T2 sequence (Q9Y2T6 whole entry): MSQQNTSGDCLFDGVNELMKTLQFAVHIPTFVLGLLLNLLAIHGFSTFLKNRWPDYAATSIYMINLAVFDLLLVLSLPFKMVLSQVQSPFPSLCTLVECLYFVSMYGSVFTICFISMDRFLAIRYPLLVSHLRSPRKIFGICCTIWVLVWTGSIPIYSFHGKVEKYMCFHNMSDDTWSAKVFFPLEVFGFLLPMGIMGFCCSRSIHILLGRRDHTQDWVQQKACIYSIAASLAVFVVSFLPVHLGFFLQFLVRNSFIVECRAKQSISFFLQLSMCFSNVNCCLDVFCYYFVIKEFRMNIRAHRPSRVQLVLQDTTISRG

Regarding `C=C(C)[C@@H]1CCC(C)=C[C@H]1c1c(O)cc(CCCCC)cc1O` [CBD, cannabidiol], the “reduction of fluorescent agonist binding” value at human CB2R [1] is “circa 25%”. The “G-protein-coupled signal (cAMP) of compound alone” value at human CB2R [2] (concentration range 1–1,000 nM, no agonist, HEK-293T cells expressing human CB2R) was “did not significantly engage any G-protein-coupled signal”. In addition, the “cAMP response to combined treatment with CBD and JWH133” value at human GPR55 (100 nM JWH133, HEK-293T transiently transfected with GPR55) was “not significantly different than that achieved by CBD alone”. The “cAMP signal of compound alone” value on human GPR55 (HEK-293T cells expressing human GPR55) is given as “results were similar to those in cells expressing the CB2R”.
On to `CCCC(C)(C)c1ccc2c(c1)OC(C)(C)[C@@H]1CC=C(C)C[C@@H]21` [JWH133], for which the “Agonist-induced reduction in cAMP” value at human CB2R [2] (100 nM JWH133, data given in percentage of the 500 nM forskolin-induced cAMP concentration) was 31 ± 4.
With SR144528, the “effect on maximum binding (Bmax) of red CB2R ligand” value on human CB2R [3] is “reduced Bmax values”.

The values are drawn from article PMC5660261 (Frontiers in Pharmacology, 2017).
